This note sets out measurements from patent US20200121801A1, “DRUG DELIVERY CONJUGATES CONTAINING UNNATURAL AMINO ACIDS AND METHODS FOR USING” (priority 2012, published 2020).

Data set [1] concerns adjuvant-induced arthritis. The data set is described as follows: Adjuvant-induced arthritis (AIA) model. The protocol:
METHOD. Adjuvant-Induced Arthritis (AIA) Model. Female Lewis rats are fed a folate-deficient diet (Harlan Teklad, Indianapolis, Ind.) for 9-10 days prior to arthritis induction. The adjuvant-induced arthritis (AIA) is induced by intradermal inoculation (at the base of tail) of 0.4-0.5 mg of heat-killed Mycobacteria butyricum (BD Diagnostic Systems, Sparks, Md.) in 100 μL light mineral oil (Sigma). Ten days after arthritis induction, paw edema (degree of arthritis) in rats is assessed using a modified arthritis scoring system: 0=no arthritis; 1=swelling in one type of joint; 2=swelling in two types of joint; 3=swelling in three types of joint; 4=swelling of the entire paw. A total score for each rat is calculated by summarizing the scores for each of the four paws, giving a maximum score of 16 for each rat. On Day 10 post arthritis induction, rats with a total arthritis score of […] were removed from the study and the remaining rats are distributed evenly across the control and treatment groups (n=5 for all groups except that n=2-3 for healthy controls). All treatments are started on Day 10 unless indicated otherwise. Rat paws are also evaluated radiographically to assess and determine bone damage.
EXAMPLE. […] Starting 9 days after induction, rats with developing AIA are distributed according to arthritis scores into three groups (n=5): (1) the untreated AIA control, (2) the EC1669 treated group, and (3) the EC1669 plus EC0923 competition group. All treatments last for 2 consecutive weeks. The animals in the AIA control group are left untreated. The animals in the EC1669 treatment group are given twice-a-week subcutaneous doses of EC1669 at a dosage of 375 nmol/kg. The animals in the EC1669 plus EC0923 group are given twice-a-week subcutaneous doses of EC1669 at a dosage of 375 nmol/kg in conjunction to EC0923 at a dosage of 187.5 μmol/kg.
EXAMPLE. […] CellCept is a prodrug of mycophenolic acid, an immunosuppressant drug used to prevent organ rejection in transplantation. CellCept is activated in vivo and releases its active product that can inhibit T cell proliferation and interfere with leukocyte adhesion to endothelial cells. To test the combination effect of EC1669 and CellCept, rats with developing AIA are distributed according to arthritis scores into four groups (n=5): (1) the untreated AIA control, (2) the EC1669 treated group, (3) the CellCept treated group, and (4) the EC1669 and CellCept combination group. All treatments start on day 9 after AIA induction and last 2 consecutive weeks. The animals in the AIA control group are untreated. The animals in the EC1669 treatment group are given weekly subcutaneous doses of EC1669 at a dosage of 1000 nmol/kg. The animals in the CellCept treatment group are given daily oral doses of CellCept at a dosage of 30 mg/kg, 5 days per week. The animals in the EC1669 and CellCept combination treatment group are given weekly subcutaneous doses of EC1669 at a dosage of 1000 nmol/kg and daily oral doses of CellCept at a dosage of 30 mg/kg, 5 days per week.

Data set [2] concerns experimental autoimmune uveitis. The data set is described as follows: Experimental autoimmune uveitis (EAU) model.
Method: Animal Experimental Autoimmune Uveitis Model. Experimental autoimmune uveitis (EAU) is induced in female Lewis rats maintained on a folate-deficient diet (Harlan Teklad, Indianapolis, Ind.). On Day 0, the animals are immunized subcutaneously with 25 μg of bovine S-Ag PDSAg peptide formulated with Freund's incomplete adjuvant containing 0.5 mg of grounded M. Tuberculosis H37Ra. Purified pertussis toxin (PT) is given at a dosage of 1 μg per animal on the same day via intraperitoneal injection. The severity of uveitis in each eye is assessed by a qualitative visual score system: 0=No disease, eye is translucent and reflects light (red reflex); 0.5 (trace)=Dilated blood vessels in the iris, 1=Engorged blood vessels in iris, abnormal pupil contraction; 2=Hazy anterior chamber, decreased red reflex; 3=Moderately opaque anterior chamber, but pupil still visible, dull red reflex; and 4=Opaque anterior chamber and obscured pupil, red reflex absent, proptosis. This assessment yields a maximum uveitis score of 8 per animal.
All treatments start on day 8 after EAU induction. The animals in the EAU control group are untreated. […] The uveitis score and animal body weight are recorded for each animal at predetermined frequencies. The clinical severity of EAU is monitored on a daily basis using an ophthalmoscope and graded on a scale of 0 to 4 per eye with a maximum possible score of 8 per animal. […]
Where [3] appears, read: 375 nmol/kg s.c. twice-a-week, 2 weeks.

With `N=c1[nH]c(N)nc2ncc(CNc3ccc(C(=O)N[C@@H](CCC(=O)NNC(=O)OCCSSC[C@@H](NC(=O)[C@H](CCC(=O)NC[C@H](O)[C@@H](O)[C@H](O)[C@H](O)CO)NC(=O)[C@@H](CCC(=O)O)NC(=O)[C@H](CCC(=O)NC[C@H](O)[C@@H](O)[C@H](O)[C@H](O)CO)NC(=O)[C@@H](CCC(=O)O)NC(=O)[C@H](CCC(=O)NC[C@H](O)[C@@H](O)[C@H](O)[C@H](O)CO)NC(=O)CC[C@H](NC(=O)c4ccc(NCc5cnc6nc(N)[nH]c(=O)c6n5)cc4)C(=O)O)C(=O)O)C(=O)O)cc3)nc12` [EC1669], the “reduction in paw swelling” value in data set [1] (250 nmol/kg, biw) turned out to be 64%; in data set [1] (500 nmol/kg, biw), 81%; in data set [1] (1000 nmol/kg, siw), 44%. For the same compound, the “whole animal toxicity (body weight)” value in data set [1] (375 nmol/kg) is listed as “does not exhibit whole animal toxicity”. The “alleviation of bone damage compared to control” value in data set [1] (setting [3]) is roughly 80%. Besides, the “alleviation of paw swelling compared to control” value in data set [1] (setting [3]) is recorded as roughly 80%. Moreover, in data set [1] (EC0923 187.5 μmol/kg co-dosed), the “anti-arthritic activity with folate competitor EC0923” value is given as “competable (blocked)”. The “symptoms of EAU (uveitis score)” value in data set [2] (250 nmol/kg s.c. q2d, five doses from day 8) is “effectively reduces the symptoms of EAU”. Moreover, the “treatment-related weight loss / whole animal toxicity” value in data set [2] (rat, in vivo) is listed as “does not cause whole animal toxicity”.
